Calls of active or inactive are those of the source.
Assays:
[1] = target: T1, Corticotropin-releasing factor receptor 2/Corticotropin-releasing factor-binding protein (Homo sapiens, UniProt P24387+Q13324); assay: activators of CRF receptor 2 with binding protein – uHTS hits, confirmation (AID 602473); type: functional; conditions: read-out: EC50_Mean
T1 sequence (Q13324 whole entry): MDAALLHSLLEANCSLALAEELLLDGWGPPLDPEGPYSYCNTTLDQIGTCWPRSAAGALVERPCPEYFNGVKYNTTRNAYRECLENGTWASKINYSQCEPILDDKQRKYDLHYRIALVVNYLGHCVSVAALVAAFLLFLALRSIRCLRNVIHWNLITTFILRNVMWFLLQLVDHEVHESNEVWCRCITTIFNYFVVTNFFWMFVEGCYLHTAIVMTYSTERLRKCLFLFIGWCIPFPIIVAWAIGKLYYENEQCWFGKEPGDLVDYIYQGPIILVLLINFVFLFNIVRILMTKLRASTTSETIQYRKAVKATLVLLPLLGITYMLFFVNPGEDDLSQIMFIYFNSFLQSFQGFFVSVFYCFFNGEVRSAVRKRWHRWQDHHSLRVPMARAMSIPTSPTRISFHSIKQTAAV
T1 sequence (P24387 whole entry): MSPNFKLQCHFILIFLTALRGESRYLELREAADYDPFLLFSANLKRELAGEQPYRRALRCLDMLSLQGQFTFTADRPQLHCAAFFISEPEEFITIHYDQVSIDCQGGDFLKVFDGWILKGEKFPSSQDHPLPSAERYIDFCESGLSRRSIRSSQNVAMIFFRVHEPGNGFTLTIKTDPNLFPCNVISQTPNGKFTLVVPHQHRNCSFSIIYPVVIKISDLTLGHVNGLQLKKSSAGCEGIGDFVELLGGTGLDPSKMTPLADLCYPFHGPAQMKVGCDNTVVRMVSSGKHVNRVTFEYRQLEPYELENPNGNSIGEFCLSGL

[2] = target: T2, Short transient receptor potential channel 4 (Mus musculus, UniProt Q9QUQ5); assay: calcium entry via TRPC4 opening agents – cell-based, HEK293 TRPC4/mu-opioid, Fluo-4 calcium, dose response (AID 434937); type: functional
T2 sequence (Q9QUQ5 whole entry): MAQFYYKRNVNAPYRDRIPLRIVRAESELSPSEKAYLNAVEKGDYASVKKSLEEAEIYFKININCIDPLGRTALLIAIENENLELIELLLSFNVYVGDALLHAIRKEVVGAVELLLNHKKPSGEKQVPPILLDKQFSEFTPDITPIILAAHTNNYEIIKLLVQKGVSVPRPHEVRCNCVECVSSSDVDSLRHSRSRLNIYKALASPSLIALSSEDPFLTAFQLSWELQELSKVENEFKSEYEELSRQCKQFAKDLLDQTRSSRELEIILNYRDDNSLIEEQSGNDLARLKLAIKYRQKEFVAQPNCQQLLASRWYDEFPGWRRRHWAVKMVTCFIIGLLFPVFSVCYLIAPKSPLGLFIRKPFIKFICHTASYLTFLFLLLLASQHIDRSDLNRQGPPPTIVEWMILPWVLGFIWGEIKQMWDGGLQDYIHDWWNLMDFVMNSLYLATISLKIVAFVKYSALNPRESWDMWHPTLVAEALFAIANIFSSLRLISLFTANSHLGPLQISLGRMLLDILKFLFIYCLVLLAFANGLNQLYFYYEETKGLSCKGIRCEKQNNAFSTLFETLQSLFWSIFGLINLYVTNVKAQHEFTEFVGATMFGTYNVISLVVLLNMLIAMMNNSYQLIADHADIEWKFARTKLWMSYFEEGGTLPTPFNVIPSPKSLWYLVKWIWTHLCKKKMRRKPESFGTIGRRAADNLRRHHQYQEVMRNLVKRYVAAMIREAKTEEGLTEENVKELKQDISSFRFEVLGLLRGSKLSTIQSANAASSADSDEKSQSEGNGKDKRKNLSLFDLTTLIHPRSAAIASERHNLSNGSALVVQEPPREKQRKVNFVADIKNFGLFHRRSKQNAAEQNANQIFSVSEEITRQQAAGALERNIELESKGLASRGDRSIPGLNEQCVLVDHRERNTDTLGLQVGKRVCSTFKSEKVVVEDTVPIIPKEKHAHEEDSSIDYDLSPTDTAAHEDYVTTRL

[3] = target: T3, Polyadenylate-binding protein 1 (Homo sapiens, UniProt P11940); assay: MLLE binding blockers, Cy5 peptide tracer – biochemical, fluorescence polarization, Cy5-PAM2 peptide, secondary, miRNA deadenylation inhibitor project, dose response (AID 602260); type: functional; conditions: read-out: IC50_Mean
[4] = target: T3, Polyadenylate-binding protein 1; assay: MLLE domain peptide-binding blockers, IC50 – biochemical, fluorescence polarization, FITC-PAM2 peptide, dose response (AID 602259); type: functional; conditions: read-out: IC50_Mean
[5] = target: T4, Carboxy-terminal domain RNA polymerase II polypeptide A small phosphatase 1 (Homo sapiens, UniProt Q9GZU7); assay: CTDSP1 inhibitors, concentration-response, biochemical, absorbance readout, ultra-high-throughput screen actives (AID 540297); type: functional
T4 sequence (Q9GZU7 whole entry): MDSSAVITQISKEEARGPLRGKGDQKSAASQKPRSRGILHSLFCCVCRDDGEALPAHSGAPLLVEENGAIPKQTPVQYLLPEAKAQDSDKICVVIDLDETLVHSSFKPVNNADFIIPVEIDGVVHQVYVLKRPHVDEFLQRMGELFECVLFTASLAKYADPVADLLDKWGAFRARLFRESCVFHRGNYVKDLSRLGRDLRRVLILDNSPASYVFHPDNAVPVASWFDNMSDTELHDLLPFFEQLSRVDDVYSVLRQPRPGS

[6] = target: T5, Heat shock factor protein 1 (Mus musculus, UniProt P38532); assay: enhancement of HSF1-driven luciferase signal – cell-based, NIH3T3, luminescence, dose retest, confirmation (AID 435004); type: functional;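 note: stress induced by proteasome inhibitor MG132 added 30 min after compound; luciferase reporter driven by HSF1 response element in NIH3T3 cells; actives raise luminescence as potentiators of the MG132 stress response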
T5 sequence (P38532 whole entry): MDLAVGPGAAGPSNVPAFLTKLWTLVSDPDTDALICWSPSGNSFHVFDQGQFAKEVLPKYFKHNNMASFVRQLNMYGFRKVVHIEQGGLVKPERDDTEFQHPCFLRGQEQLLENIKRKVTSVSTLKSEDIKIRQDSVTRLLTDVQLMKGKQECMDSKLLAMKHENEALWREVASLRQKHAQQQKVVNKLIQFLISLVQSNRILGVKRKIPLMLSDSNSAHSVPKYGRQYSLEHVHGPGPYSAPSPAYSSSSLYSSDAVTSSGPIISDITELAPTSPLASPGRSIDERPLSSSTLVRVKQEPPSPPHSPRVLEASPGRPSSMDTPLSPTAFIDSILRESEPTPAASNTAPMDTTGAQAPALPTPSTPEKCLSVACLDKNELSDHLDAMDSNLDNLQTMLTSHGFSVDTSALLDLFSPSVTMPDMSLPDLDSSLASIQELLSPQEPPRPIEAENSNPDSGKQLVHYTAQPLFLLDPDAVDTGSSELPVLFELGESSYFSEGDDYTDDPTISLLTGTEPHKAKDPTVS

Cytochrome P450 2C9 = Cytochrome P450 2C9 (Homo sapiens, UniProt P11712)
Cytochrome P450 3A4 = Cytochrome P450 3A4 (Homo sapiens, UniProt P08684);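 note: CYP3A4 tested as one member of a cytochrome P450 panel screen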
Fatty acid synthase [7] = target: T6, Fatty acid synthase (Homo sapiens, UniProt P49327); assay: inhibition of human FAS-TE enzyme activity – biochemical, endpoint fluorescence intensity, uHTS hits, dose response (AID 624327); type: functional;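 note: fluorescence from hydrolysis of an O-methyl fluorescein acyl ester substrate by the enzyme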
Fatty acid synthase [8] = target: T6, Fatty acid synthase; assay: inhibition of human FAS-TE enzyme activity – biochemical, kinetic fluorescence intensity, dose response (AID 624326); type: functional;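 note: rate of fluorescence rise from hydrolysis of a fluorogenic O-methyl fluorescein ester substrate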
Cytochrome P450 2C19 = Cytochrome P450 2C19 (Homo sapiens, UniProt P33261); assay: Cytochrome panel assay with activity outcomes. Panel member name: p450-cyp2c19 Compounds with AC50 equal or less than 10 uM are considered active; type: functional; conditions: read-out: AC50
[9] = Luminescence Cell-Based Dose Response HTS to Identify Activators of Luciferase Translation or Activity in H4 […] Cells. [Related pubchem assays: 1829 (Project Summary), 1814 (Primary HTS)]; type: functional
Streptococcus = assay: GAS UMAA2166 growth inhibition – luminescence, BacTiterGlo, counter-screen for streptokinase expression inhibitor project, dose response (AID 1915); type: functional, organism-based;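 note: potency for reduction of bacterial viability or growth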
H4 = assay: Luminescence Cell-Based Dose Response HTS to Identify Activators of 5'UTR Stem-Loop Driven Prion Protein mRNA Translation in H4 Neuroglioblastoma Cells. [Related pubchem assays: 1829 (Project Summary), 1814 (Primary HTS)]; type: functional; conditions: Homo sapiens
[10] = test system: Streptococcus sp. 'group A'; assay: Streptococcus pyogenes SK(-)GAS viability under kanamycin – luminescence, BacTiterGlo, confirmation, counter-screen for streptokinase expression inhibitor project, dose response (AID 1900); type: functional, organism-based
Streptokinase A = target: T7, Streptokinase A (Streptococcus pyogenes serotype M1, UniProt P10520); assay: viability-normalized secreted streptokinase activity reduction – plasminogen activation absorbance, OD405, dose response (AID 1914); type: functional, Streptococcus pyogenes M1 GAS;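 note: secreted streptokinase activity via plasminogen activation per viability signal from cell pellet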
T7 sequence (P10520 whole entry): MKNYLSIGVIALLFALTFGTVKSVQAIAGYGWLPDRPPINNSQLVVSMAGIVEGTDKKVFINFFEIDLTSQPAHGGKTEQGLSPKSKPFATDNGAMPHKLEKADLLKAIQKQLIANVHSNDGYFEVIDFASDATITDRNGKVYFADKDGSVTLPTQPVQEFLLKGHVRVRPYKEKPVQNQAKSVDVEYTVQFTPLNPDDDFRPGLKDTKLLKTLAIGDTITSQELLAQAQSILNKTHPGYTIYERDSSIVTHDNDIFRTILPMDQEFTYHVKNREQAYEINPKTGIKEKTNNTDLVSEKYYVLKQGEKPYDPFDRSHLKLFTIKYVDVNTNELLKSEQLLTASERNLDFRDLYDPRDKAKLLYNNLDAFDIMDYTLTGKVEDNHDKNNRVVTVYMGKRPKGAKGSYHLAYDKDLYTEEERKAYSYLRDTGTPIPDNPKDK

[11] = Trypanosoma cruzi growth suppression in host cells – NIH3T3 host cells, beta-gal luminescence, confirmation (AID 2044); type: functional, cell-based;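 note: intracellular parasites grown in NIH/3T3 mouse fibroblasts as host cells; luminescent beta-galactosidase reporter signal from transgenic T. cruzi replicating inside host cells; inhibitors lower the luminescence signal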
[12] = NIH3T3 cell viability loss – ATP luminescence, mouse fibroblasts, counter-screen, dose response (AID 2010); type: functional, cell-based;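 note: cells exposed to compound for about 90 hours before reading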
Vero = assay: cells; type: functional; conditions: Chlorocebus sabaeus
Cytochrome P450 1A2 = target: T8, Cytochrome P450 1A2 (Homo sapiens, UniProt P05177);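 note: PubChem cytochrome P450 panel assay, CYP1A2 panel member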
T8 sequence (P05177 whole entry): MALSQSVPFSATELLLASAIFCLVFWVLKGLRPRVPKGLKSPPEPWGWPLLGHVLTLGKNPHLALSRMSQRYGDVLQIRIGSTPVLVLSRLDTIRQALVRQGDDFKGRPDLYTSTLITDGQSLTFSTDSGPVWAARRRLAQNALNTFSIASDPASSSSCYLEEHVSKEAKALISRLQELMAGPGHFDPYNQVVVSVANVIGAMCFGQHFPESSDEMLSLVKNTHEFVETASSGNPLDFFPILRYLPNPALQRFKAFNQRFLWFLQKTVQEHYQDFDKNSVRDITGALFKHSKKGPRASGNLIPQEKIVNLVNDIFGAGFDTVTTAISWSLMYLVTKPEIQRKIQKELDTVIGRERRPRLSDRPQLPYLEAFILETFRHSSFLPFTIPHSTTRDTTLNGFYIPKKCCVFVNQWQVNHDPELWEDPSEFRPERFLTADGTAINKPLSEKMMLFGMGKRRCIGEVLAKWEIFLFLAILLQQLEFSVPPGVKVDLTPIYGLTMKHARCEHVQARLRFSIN

Cytochrome P450 2D6 = Cytochrome P450 2D6 (Homo sapiens, UniProt P10635);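 note: CYP2D6 member of a cytochrome P450 panel assay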

Sequence of Cytochrome P450 2C9 (P11712 whole entry): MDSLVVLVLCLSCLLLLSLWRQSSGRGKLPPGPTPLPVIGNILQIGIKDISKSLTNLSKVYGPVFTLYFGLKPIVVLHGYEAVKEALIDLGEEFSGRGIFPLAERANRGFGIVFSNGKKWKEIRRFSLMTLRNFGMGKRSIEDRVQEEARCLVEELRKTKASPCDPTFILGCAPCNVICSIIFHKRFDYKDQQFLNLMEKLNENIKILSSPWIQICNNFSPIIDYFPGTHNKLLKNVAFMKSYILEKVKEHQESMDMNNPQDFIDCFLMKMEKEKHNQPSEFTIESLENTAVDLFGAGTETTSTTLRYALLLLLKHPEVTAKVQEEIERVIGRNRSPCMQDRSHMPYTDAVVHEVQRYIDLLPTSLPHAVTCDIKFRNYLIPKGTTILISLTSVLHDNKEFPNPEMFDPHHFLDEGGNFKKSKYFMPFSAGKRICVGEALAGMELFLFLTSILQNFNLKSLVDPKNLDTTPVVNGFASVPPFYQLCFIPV
T6 sequence (P49327 whole entry): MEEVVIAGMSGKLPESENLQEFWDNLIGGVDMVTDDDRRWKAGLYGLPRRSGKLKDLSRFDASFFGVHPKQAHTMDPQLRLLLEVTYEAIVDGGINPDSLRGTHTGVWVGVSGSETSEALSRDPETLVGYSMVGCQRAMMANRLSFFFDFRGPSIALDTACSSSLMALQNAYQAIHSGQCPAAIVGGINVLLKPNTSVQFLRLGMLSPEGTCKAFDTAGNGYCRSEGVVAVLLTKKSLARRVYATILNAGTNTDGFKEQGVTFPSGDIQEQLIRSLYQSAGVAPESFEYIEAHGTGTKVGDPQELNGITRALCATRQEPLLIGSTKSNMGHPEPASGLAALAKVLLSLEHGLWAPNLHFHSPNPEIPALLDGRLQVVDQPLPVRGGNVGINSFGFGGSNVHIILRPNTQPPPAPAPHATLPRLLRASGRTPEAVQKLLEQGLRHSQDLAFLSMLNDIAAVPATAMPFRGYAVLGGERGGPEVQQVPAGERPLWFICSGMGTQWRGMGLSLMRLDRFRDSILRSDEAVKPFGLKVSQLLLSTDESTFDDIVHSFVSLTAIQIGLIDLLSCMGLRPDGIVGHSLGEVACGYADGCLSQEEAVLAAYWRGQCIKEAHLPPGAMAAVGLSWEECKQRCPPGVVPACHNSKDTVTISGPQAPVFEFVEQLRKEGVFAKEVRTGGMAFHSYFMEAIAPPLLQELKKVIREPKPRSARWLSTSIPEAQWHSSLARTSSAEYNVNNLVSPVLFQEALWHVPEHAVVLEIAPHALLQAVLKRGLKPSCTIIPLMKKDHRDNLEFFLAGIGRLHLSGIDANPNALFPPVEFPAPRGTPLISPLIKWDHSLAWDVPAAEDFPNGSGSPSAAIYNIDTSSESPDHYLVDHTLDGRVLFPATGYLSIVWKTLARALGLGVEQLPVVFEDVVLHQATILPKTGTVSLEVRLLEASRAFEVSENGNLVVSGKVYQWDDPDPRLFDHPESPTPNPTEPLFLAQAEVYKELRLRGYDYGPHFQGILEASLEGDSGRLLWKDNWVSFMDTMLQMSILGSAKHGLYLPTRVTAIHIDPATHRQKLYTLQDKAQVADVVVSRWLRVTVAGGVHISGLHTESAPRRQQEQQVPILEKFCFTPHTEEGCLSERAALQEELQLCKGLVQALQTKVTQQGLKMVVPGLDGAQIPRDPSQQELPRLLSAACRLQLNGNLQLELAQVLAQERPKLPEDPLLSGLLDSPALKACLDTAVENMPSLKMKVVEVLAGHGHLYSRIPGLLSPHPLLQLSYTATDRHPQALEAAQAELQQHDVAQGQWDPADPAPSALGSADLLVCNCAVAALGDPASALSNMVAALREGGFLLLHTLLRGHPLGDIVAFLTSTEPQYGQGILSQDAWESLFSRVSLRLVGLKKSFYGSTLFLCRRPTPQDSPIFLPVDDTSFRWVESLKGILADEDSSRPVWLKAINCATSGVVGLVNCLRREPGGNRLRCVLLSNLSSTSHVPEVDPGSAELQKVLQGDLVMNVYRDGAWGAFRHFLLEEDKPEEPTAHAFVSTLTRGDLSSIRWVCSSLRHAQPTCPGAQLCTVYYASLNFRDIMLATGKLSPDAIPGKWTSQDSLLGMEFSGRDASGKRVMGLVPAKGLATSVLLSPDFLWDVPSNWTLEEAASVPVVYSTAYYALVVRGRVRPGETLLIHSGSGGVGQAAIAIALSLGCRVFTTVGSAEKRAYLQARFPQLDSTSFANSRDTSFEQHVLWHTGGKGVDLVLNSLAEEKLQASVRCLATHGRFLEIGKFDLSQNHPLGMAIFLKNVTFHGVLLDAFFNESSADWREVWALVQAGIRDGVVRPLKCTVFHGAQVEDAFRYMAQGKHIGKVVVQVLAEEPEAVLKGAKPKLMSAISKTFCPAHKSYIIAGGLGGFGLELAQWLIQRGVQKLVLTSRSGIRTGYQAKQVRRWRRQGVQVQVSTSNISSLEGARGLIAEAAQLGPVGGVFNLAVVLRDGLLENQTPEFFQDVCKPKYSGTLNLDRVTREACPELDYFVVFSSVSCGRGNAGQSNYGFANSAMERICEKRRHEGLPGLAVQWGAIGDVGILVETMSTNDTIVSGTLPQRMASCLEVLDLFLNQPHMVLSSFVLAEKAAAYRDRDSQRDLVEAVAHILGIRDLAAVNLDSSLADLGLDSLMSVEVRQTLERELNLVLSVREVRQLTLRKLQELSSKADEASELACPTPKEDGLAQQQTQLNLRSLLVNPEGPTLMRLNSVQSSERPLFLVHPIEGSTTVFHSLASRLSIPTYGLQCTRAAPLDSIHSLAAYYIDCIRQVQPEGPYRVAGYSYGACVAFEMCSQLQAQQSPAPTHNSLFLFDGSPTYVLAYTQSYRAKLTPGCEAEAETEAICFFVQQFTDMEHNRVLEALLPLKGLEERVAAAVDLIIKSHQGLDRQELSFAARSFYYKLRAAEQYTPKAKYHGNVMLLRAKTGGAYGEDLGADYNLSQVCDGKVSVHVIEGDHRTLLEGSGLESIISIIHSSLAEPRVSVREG
Sequence of Cytochrome P450 3A4 (P08684 whole entry): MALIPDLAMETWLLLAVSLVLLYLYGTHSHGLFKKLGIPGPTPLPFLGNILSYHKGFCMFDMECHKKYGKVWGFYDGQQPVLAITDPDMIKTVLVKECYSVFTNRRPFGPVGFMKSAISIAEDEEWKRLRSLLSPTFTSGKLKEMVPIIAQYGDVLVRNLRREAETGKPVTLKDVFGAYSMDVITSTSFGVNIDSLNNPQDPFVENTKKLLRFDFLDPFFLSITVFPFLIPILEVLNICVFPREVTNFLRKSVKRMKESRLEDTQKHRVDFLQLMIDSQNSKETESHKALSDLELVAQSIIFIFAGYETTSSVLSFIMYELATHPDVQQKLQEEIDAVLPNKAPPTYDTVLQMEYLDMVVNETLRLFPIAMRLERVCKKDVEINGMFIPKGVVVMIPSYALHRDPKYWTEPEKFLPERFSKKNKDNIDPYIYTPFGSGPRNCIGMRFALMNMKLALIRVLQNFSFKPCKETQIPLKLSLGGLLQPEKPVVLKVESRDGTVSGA
T3 sequence (P11940 whole entry, the tested form may be a part): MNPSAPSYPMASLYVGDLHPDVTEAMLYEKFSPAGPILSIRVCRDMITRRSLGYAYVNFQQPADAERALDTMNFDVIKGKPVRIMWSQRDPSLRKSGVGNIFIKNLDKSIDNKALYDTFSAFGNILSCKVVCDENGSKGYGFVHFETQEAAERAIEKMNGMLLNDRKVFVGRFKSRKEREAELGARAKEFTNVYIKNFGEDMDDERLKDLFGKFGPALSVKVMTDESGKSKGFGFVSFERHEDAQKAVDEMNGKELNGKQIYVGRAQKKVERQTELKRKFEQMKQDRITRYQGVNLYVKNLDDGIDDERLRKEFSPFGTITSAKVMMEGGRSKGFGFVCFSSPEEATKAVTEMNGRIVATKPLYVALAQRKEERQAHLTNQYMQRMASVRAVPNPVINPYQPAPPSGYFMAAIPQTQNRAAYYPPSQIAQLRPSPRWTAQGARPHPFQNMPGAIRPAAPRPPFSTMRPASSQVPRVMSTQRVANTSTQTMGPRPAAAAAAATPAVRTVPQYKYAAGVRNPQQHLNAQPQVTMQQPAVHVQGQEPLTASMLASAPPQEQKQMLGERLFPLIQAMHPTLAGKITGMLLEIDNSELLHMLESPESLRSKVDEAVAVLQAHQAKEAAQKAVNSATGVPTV
Sequence of Cytochrome P450 2C19 (P33261 whole entry): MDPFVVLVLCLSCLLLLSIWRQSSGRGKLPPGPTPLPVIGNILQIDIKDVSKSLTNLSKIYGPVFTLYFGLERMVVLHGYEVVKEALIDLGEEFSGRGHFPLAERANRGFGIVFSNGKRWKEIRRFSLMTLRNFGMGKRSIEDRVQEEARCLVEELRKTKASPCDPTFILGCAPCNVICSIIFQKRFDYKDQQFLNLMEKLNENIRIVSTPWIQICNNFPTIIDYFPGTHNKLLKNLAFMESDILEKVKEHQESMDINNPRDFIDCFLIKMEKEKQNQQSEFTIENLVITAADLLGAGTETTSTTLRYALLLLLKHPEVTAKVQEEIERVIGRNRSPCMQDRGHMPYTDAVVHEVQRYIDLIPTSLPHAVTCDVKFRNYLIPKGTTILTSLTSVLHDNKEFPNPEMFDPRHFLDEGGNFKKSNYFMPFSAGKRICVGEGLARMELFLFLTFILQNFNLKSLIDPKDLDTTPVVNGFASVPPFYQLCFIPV

CC12CCCCN1CCCc1c2[nH]c2ccccc12 (configuration not stated)
EC50 [1]: 4.38 µM (active) | EC50 [2]: 4.22 µM (active) | IC50 [3]: > 66 µM (inactive) | IC50 [4]: > 66 µM (inactive)

Cc1c(Cl)cnc(NC(=O)COC(=O)c2ccc(S(=O)(=O)NCc3ccco3)cc2)c1Cl
IC50 [5]: 8.67 µM (active)

Cc1ccc2[nH]c(/C(C#N)=C\c3ccc(Oc4ccc(C(F)(F)F)cc4[N+](=O)[O-])cc3)nc2c1
IC50 [5]: 2.42 µM (active)

O=C(Oc1ccc(C(=S)N2CCOCC2)cc1Br)c1cc(Cl)ccc1Cl
EC50 [6]: 68.8 µM (active) | AC50 (Cytochrome P450 2C9): inconclusive | AC50 (Cytochrome P450 3A4): 12.6 µM (inconclusive)

O=C(/C=C/c1cccc([N+](=O)[O-])c1)N1CCN(c2ccccc2F)CC1
IC50 (Fatty acid synthase [7]): 11.6 µM (active) | IC50 (Fatty acid synthase [8]): 6.52 µM (active)

COc1ccc(NC(=O)c2cc(-c3ccccc3Cl)no2)cc1
AC50 (Cytochrome P450 2C19): 2.82 µM (inconclusive) | AC50 (Cytochrome P450 2C9): inconclusive | AC50 (Cytochrome P450 3A4): 20 µM (inconclusive)

CCOc1c(OC(C)=O)ccc(/C=C/c2ccc3cccc(OC(C)=O)c3n2)c1[N+](=O)[O-]
EC50 [9]: 8.52 µM (active) | EC50 (Streptococcus): 8.24 µM (active) | AC50 (Cytochrome P450 2C9): inconclusive | EC50 (H4): 8.07 µM (active) | EC50 [10]: 1.49 µM (active) | EC50 (Streptokinase A): > 150 µM (not active)

COc1ccc2cc3cc(C(=O)N4CCCCCC4)oc3nc2c1
IC50 (Fatty acid synthase [7]): 3.92 µM (active) | IC50 (Fatty acid synthase [8]): 3.37 µM (active)

Cc1cc(Br)cc(C)c1OCCCCN(C)C.O=C(O)C(=O)O
EC50 [11]: 0.196 µM (active) | EC50 [12]: > 30 µM (not active) | AC50 (Cytochrome P450 2C9): inconclusive

O=C(O)/C(=C/c1ccco1)NC(=O)c1ccccc1
IC50 [5]: 6.04 µM (active)

O=C(COc1ccc2ccccc2c1Br)NNC(=O)Nc1ccccc1
AC50 (Cytochrome P450 2C9): inconclusive

CC(C)(C)c1ccc2c(c1)OC(C(=O)N/N=C/c1ccc([N+](=O)[O-])o1)CO2 (configuration not stated)
EC50 [11]: 0.102 µM (active) | EC50 [12]: > 60 µM (not active) | EC50 (Streptococcus): 10.3 µM (active) | IC50 [5]: 5.41 µM (active) | EC50 [10]: 5.27 µM (active) | EC50 (Streptokinase A): 5.82 µM (active) | CC50 (Vero): > 25 µM (active)

Cc1[nH]n(-c2ccccc2)c(=O)c1CCOC(=O)c1ccc(C(F)(F)F)cc1
AC50 (Cytochrome P450 1A2): 15.8 µM (inconclusive) | AC50 (Cytochrome P450 2C9): inconclusive

CCOC(=O)c1cc2c(=O)n3ccccc3nc2n(Cc2ccco2)/c1=N/C(=O)c1ccc(OC)cc1
IC50 (Fatty acid synthase [7]): 14.6 µM (active) | IC50 (Fatty acid synthase [8]): 80 µM (inactive)

Cc1ccc(/C=N/NC(=O)C2CCN(Cc3ccc(F)cc3Cl)CC2)o1
AC50 (Cytochrome P450 2C19): 31.6 µM (inconclusive) | AC50 (Cytochrome P450 2C9): inconclusive | AC50 (Cytochrome P450 2D6): 35.5 µM (inconclusive) | AC50 (Cytochrome P450 3A4): 5.01 µM (inconclusive)
